Experimental data: US20180177734A1, “PHARMACEUTICAL FORMULATIONS COMPRISING TENOFOVIR AND EMTRICITABINE” (priority 2015, published 2018)
Like-named read-outs stand apart in the source and are kept apart here.

Settings: 40° C./75% RH open, 60° C. closed

CC(C)OC(=O)[C@H](C)N[P@](=O)(CO[C@H](C)Cn1cnc2c(N)ncnc21)Oc1ccccc1 [tenofovir alafenamide hemifumarate]
rate of degradation of tenofovir alafenamide hemifumarate (in the presence of both emtricitabine and rilpivirine HCl): further increased
rate of degradation of tenofovir alafenamide hemifumarate (in the presence of emtricitabine): increased
